Measurements taken from the NIST ThermoML archive (doi:10.1016/j.jct.2019.105891).

Key:
[1] = 100 kPa, Liquid, Falling or rolling sphere viscometry
[2] = refractive index (Na D-line) (dimensionless); settings: 100 kPa, Liquid, Standard Abbe refractometry
[3] = xn = mol fraction of the nth substance listed; settings: 100 kPa, Liquid, Falling or rolling sphere viscometry
[4] = refractive index (Na D-line) (dimensionless); xn = mol fraction of the nth substance listed; settings: 100 kPa, Liquid, Standard Abbe refractometry

CCCCn1cc[n+](C)c1.F[B-](F)(F)F [1-butyl-3-methylimidazolium tetrafluoroborate]
Settings | refractive index, 293.15 K | refractive index, 303.15 K | refractive index, 313.15 K | refractive index, 323.15 K | viscosity, 293.15 K [mPa·s] | viscosity, 303.15 K [mPa·s] | viscosity, 313.15 K [mPa·s] | viscosity, 323.15 K [mPa·s]
[1] | – | – | – | – | 135.7 | 80.4 | 51.4 | 34.92
[2] | 1.42144 | 1.41913 | 1.41621 | 1.4133 | – | – | – | –

CCCCn1cc[n+](C)c1.F[B-](F)(F)F [1-butyl-3-methylimidazolium tetrafluoroborate] + Nc1ccccc1
x1 = 1
Settings | refractive index, 293.15 K | refractive index, 303.15 K | refractive index, 313.15 K | refractive index, 323.15 K | viscosity, 293.15 K [mPa·s] | viscosity, 303.15 K [mPa·s] | viscosity, 313.15 K [mPa·s] | viscosity, 323.15 K [mPa·s]
[3] | – | – | – | – | 135.7 | 80.4 | 51.4 | 34.92
[4] | 1.42144 | 1.41913 | 1.41621 | 1.4133 | – | – | – | –

CCn1cc[n+](C)c1.F[B-](F)(F)F [1-ethyl-3-methylimidazolium tetrafluoroborate]
Settings | refractive index, 293.15 K | refractive index, 303.15 K | refractive index, 313.15 K | refractive index, 323.15 K | viscosity, 293.15 K [mPa·s] | viscosity, 303.15 K [mPa·s] | viscosity, 313.15 K [mPa·s] | viscosity, 323.15 K [mPa·s]
[1] | – | – | – | – | 45.69 | 30.54 | 21.82 | 16.42
[2] | 1.41509 | 1.41117 | 1.40802 | 1.40512 | – | – | – | –

CCn1cc[n+](C)c1.F[B-](F)(F)F [1-ethyl-3-methylimidazolium tetrafluoroborate] + Nc1ccccc1
x1 = 1
Settings | refractive index, 293.15 K | refractive index, 303.15 K | refractive index, 313.15 K | refractive index, 323.15 K | viscosity, 293.15 K [mPa·s] | viscosity, 303.15 K [mPa·s] | viscosity, 313.15 K [mPa·s] | viscosity, 323.15 K [mPa·s]
[3] | – | – | – | – | 45.69 | 30.54 | 21.82 | 16.42
[4] | 1.41509 | 1.41117 | 1.40802 | 1.40512 | – | – | – | –

Nc1ccccc1 [aniline]
Settings | refractive index, 293.15 K | refractive index, 303.15 K | refractive index, 313.15 K | refractive index, 323.15 K | viscosity, 293.15 K [mPa·s] | viscosity, 303.15 K [mPa·s] | viscosity, 313.15 K [mPa·s] | viscosity, 323.15 K [mPa·s]
[1] | – | – | – | – | 4.38 | 3.24 | 2.47 | 1.95
[2] | 1.58481 | 1.58152 | 1.57823 | 1.57494 | – | – | – | –

Nc1ccccc1 [aniline] + CCCCn1cc[n+](C)c1.F[B-](F)(F)F
Settings | refractive index, [4] | viscosity, [3] [mPa·s]
293.15 K, x2 = 0 | 1.58481 | 4.38
293.15 K, x2 = 0.1001 | 1.55273 | 7.66
293.15 K, x2 = 0.4991 | 1.47256 | 36.82
293.15 K, x2 = 0.6032 | 1.45814 | 50.14
293.15 K, x2 = 0.7021 | 1.44443 | 65.33
293.15 K, x2 = 0.7907 | 1.43496 | 81.22
293.15 K, x2 = 0.9026 | 1.42669 | 104.99
303.15 K, x2 = 0 | 1.58152 | 3.24
303.15 K, x2 = 0.1001 | 1.54951 | 5.46
303.15 K, x2 = 0.4991 | 1.46852 | 22.05
303.15 K, x2 = 0.6032 | 1.4544 | 31.1
303.15 K, x2 = 0.7021 | 1.44151 | 40.82
303.15 K, x2 = 0.7907 | 1.43264 | 50.78
303.15 K, x2 = 0.9026 | 1.42433 | 66.19
313.15 K, x2 = 0 | 1.57823 | 2.47
313.15 K, x2 = 0.1001 | 1.54532 | 4.04
313.15 K, x2 = 0.4991 | 1.46448 | 14.67
313.15 K, x2 = 0.6032 | 1.45067 | 20.79
313.15 K, x2 = 0.7021 | 1.43859 | 26.92
313.15 K, x2 = 0.7907 | 1.43031 | 33.47
313.15 K, x2 = 0.9026 | 1.42197 | 42.66
323.15 K, x2 = 0 | 1.57494 | 1.95
323.15 K, x2 = 0.1001 | 1.54114 | 3.08
323.15 K, x2 = 0.2028 | 1.51499 | 4.56
323.15 K, x2 = 0.4991 | 1.46044 | 10.52
323.15 K, x2 = 0.6032 | 1.44694 | 14.73
323.15 K, x2 = 0.7021 | 1.43567 | 18.58
323.15 K, x2 = 0.7907 | 1.42799 | 23.06
323.15 K, x2 = 0.9026 | 1.41961 | 29.65
